The structures appear in SMILES notation. pKi: −log10 of the molar value. Active and inactive are the calls of the source. The calls are words filed in the database; no cut-off is given here.

Assay type in all cases: cell-based
Experiment [1] concerns the target T1, Neuronal acetylcholine receptor; alpha4/beta2 (Homo sapiens) (UniProt P17787+P43681). Briefly: Binding affinity to human alpha4beta2 nAChR in HEK cells at 0.21 nM after 5 hrs by gamma counting in the presence of (+/-)-bupropion. Conditions: HEK293, tested as the 125I-labelled form.
Experiment [2] addresses T2, Sodium-dependent dopamine transporter (Homo sapiens, UniProt Q01959). In words: Displacement of [3H]WIN-35,428 from human DAT expressed in N2A cells after 15 mins by photoaffinity labeling.
In experiment [3] the target is T2, Sodium-dependent dopamine transporter. In words: Binding affinity to human His6-DAT expressed in LLCPK1 cells at 10 nM after 1.5 hrs measured 2 mins post-irradiation by autoradiography in the presence of (+/-)-cocaine. Conditions: LLC-PK1, tested as the 125I-labelled form.
Experiment [4] has the same target. In words: Binding affinity to human His6-DAT expressed in LLCPK1 cells at 10 nM after 1.5 hrs measured 2 mins post-irradiation by autoradiography in the presence of (+/-)-bupropion. Conditions: LLC-PK1, tested as the 125I-labelled form.
Experiment [5] shares this target. In words: Binding affinity to human His6-DAT expressed in LLCPK1 cells at 10 nM after 1.5 hrs measured 2 mins post-irradiation by SDS-PAGE/autoradiography. The note with it: LLC-PK1, tested as the 125I-labelled form.
Experiment [6] has as its target T1, Neuronal acetylcholine receptor; alpha4/beta2 (Homo sapiens). Briefly: Binding affinity to human alpha4beta2 nAChR in HEK cells at 78 nM after 2 hrs measured 10 mins post-irradiation by autoradiography in the presence of 160 uM (+/-)-bupropion. Conditions: HEK293, tested as the 125I-labelled form.

T2 sequence (Q01959 whole entry): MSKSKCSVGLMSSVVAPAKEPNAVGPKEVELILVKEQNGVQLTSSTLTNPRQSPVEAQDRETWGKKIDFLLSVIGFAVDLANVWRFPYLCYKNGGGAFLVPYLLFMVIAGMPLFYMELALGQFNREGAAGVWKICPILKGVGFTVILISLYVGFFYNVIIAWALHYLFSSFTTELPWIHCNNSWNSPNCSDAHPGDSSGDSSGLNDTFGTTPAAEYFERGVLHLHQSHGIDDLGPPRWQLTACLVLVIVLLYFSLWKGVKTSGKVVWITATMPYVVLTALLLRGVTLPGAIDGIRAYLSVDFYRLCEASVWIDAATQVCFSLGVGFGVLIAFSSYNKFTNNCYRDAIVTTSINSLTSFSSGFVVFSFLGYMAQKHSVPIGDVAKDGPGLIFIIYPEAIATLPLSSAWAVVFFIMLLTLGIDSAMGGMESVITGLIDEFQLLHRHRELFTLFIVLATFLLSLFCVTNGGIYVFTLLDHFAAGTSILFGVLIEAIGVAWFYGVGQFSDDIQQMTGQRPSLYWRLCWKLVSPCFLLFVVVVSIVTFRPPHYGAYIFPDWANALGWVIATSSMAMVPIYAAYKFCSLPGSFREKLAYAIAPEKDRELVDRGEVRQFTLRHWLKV

As usually defined, the pKi is the negative decadic logarithm of the Ki, by convention in mol/L. Higher therefore signals a low Ki. As to `CC(NC(C)(C)C)C(=O)c1ccc(N=[N+]=[N-])c(I)c1` (racemic), the result in experiment [1], in experiment [3], in experiment [4] and in experiment [6] was inactive. In experiment [2], this molecule showed a negative logarithm of the Ki (pKi) of 5.51. Further, in experiment [5], the outcome was Active.
